Experimental data taken from patent publication US11702422B2, “Imidazopyridazines as modulators of IL-17” (Janssen Pharmaceutica NV, priority 2020, dated 2023).

Assays:
[1] = biological target: IL-17A(FLAG-Tagged): IL-17RA(His-Tagged) (Homo sapiens, UniProt Q16552, K93Q); assay: IL-17A(FLAG-Tagged): IL-17RA(His-Tagged) Binding Disruption Eu-HTRF Assay; conditions: IL-17A/IL-17RA binding disruption, simple average if tested more than once
Outline: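 IC50 comes from a one-site competition fit of the HTRF 665/620 nm ratio. Compound dilutions (2-fold, 22 points) were held 1 h rt with FLAG-tagged IL-17A dimer, then His-tagged IL-17RA plus Eu-cryptate anti-FLAG and D2 anti-His antibodies were added for 2 h rt.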

[2] = tested on: IL-17A-induced G-CSF production in human normal keratinocyte (NHK); assay: NHK Assay: IL-17A-induced G-CSF production in human normal keratinocytes; format: cell-based; conditions: 24 h, adult normal human keratinocytes, IL-17A 5 ng/mL, simple average if tested more than once
Outline: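 IL-17A (5 ng/mL final) was pre-incubated 1 h at rt with titrated compound and then added to adult normal human keratinocytes (5% FBS, 0.2% DMSO) for 24 h at 37° C. Supernatant G-CSF was measured by HTRF against a standard curve to derive IC50. Viability was checked by CellTiter-Glo.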

Sequence of UniProt Q16552 (Q16552 with tags, fused parts or gaps K93Q): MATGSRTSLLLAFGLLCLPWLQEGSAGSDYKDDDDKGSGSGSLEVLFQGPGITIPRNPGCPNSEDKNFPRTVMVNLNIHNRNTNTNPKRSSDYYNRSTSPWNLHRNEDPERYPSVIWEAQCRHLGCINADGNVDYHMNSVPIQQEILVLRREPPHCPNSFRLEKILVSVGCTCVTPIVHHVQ

IC50 [1]	SMILES	IC50 ([2]; Homo sapiens, Keratinocyte)	IC50 [2]
110 nM	O=C(CCC(F)(F)F)N[C@@H](c1cnn2cc([C@@H](NC(=O)c3cnnn3CC3CC3(F)F)C3CCC(F)(F)CC3)nc2c1)C1CC1 (stereo partly drawn) [Example 92, N—((S)-(7-((R)-Cyclopropyl(4,4,4-trifluorobutanamido)methyl)imidazo[1,2-b]pyridazin-2-yl)(4,4-difluorocyclohexyl)methyl)-1-((2,2-difluorocyclopropyl)methyl)-1H-1,2,3-triazole-5-carboxamide]	140 nM	
82 nM	O=C(CCC(F)(F)F)N[C@@H](c1cnn2cc([C@@H](NC(=O)c3ccnn3C(F)F)C3CCC(F)(F)CC3)nc2c1)C1CC1 [Example 67, N—((S)-(7-((R)-Cyclopropyl(4,4,4-trifluorobutanamido)methyl)imidazo[1,2-b]pyridazin-2-yl)(4,4-difluorocyclohexyl)methyl)-1-(difluoromethyl)-1H-pyrazole-5-carboxamide]	180 nM	
85 nM	CC(C)(F)c1nonc1C(=O)N[C@H](c1cn2ncc([C@H](NC(=O)CCC(F)(F)F)C3CC3)cc2n1)C1CCC(F)(F)CC1 [Example 388, N—((S)-(7-((R)-Cyclopropyl(4,4,4-trifluorobutanamido)methyl)imidazo[1,2-b]pyridazin-2-yl)(4,4-difluorocyclohexyl)methyl)-4-(2-fluoropropan-2-yl)-1,2,5-oxadiazole-3-carboxamide]	100 nM	
67 nM	O=C(CCC(F)(F)F)N[C@@H](c1cnn2cc([C@@H](NC(=O)c3cncc(C(F)(F)F)c3)C3CCC(F)(F)CC3)nc2c1)C1CC1 [Example 178, N—((S)-(7-((R)-Cyclopropyl(4,4,4-trifluorobutanamido)methyl)imidazo[1,2-b]pyridazin-2-yl)(4,4-difluorocyclohexyl)methyl)-5-(trifluoromethyl)nicotinamide]	450 nM	
290 nM	O=C(CCC(F)(F)F)N[C@@H](c1cnn2cc([C@@H](NC(=O)c3ccnc4c3CCC4)C3CCC(F)(F)CC3)nc2c1)C1CC1 [Example 191, N—((S)-(7-((R)-Cyclopropyl(4,4,4-trifluorobutanamido)methyl)imidazo[1,2-b]pyridazin-2-yl)(4,4-difluorocyclohexyl)methyl)-6,7-dihydro-5H-cyclopenta[b]pyridine-4-carboxamide]	1100 nM	
430 nM	CC(C)C(NC(=O)CCC(F)(F)F)c1cnn2cc([C@@H](NC(=O)c3ccnn3C(C)C)C3CCC(F)(F)CC3)nc2c1 (single isomer, unassigned) [Example 154, N—((S)-(4,4-Difluorocyclohexyl)(7-((R*)-2-methyl-1-(4,4,4-trifluorobutanamido)propyl)imidazo[1,2-b]pyridazin-2-yl)methyl)-1-isopropyl-1H-pyrazole-5-carboxamide]		640 nM
98 nM	O=C(CC1CC(F)(F)C1)NC(c1cnn2cc([C@@H](NC(=O)c3nonc3C3CC3)C3CCC(F)(F)CC3)nc2c1)C(F)(F)F (single isomer, unassigned) [Example 421, 4-Cyclopropyl-N—((S)-(7-((S*)-1-(2-(3,3-difluorocyclobutyl)acetamido)-2,2,2-trifluoroethyl)imidazo[1,2-b]pyridazin-2-yl)(4,4-difluorocyclohexyl)methyl)-1,2,5-oxadiazole-3-carboxamide]	43 nM	
250 nM	CC(C)n1nccc1C(=O)N[C@H](c1nc2cc([C@H](NC(=O)CCC(F)(F)F)C3CC3)cnn2c1F)C1CCC(F)(F)CC1 [Example 118, N—((S)-(7-((R)-Cyclopropyl(4,4,4-trifluorobutanamido)methyl)-3-fluoroimidazo[1,2-b]pyridazin-2-yl)(4,4-difluorocyclohexyl)methyl)-1-isopropyl-1H-pyrazole-5-carboxamide]	370 nM	
300 nM	O=C(CCC(F)(F)F)N[C@@H](c1cnn2cc([C@@H](NC(=O)c3cc(OCC(F)F)ccn3)C3CCC(F)(F)CC3)nc2c1)C1CC1 [Example 197, N—((S)-(7-((R)-Cyclopropyl(4,4,4-trifluorobutanamido)methyl)imidazo[1,2-b]pyridazin-2-yl)(4,4-difluorocyclohexyl)methyl)-4-(2,2-difluoroethoxy)picolinamide]	1700 nM	
110 nM	O=C(CCC(F)(F)F)N[C@@H](c1cnn2cc([C@@H](NC(=O)c3ccnn3C(CF)CF)C3CCC(F)(F)CC3)nc2c1)C1CC1 [Example 69, N—((S)-(7-((R)-Cyclopropyl(4,4,4-trifluorobutanamido)methyl)imidazo[1,2-b]pyridazin-2-yl)(4,4-difluorocyclohexyl)methyl)-1-(1,3-difluoropropan-2-yl)-1H-pyrazole-5-carboxamide]	55 nM	
780 nM	CC(C)n1nccc1C(=O)N[C@H](c1cn2ncc([C@@H](NC(=O)C[C@H]3CC3(F)F)C3CC3)cc2n1)C1CCC(F)(F)CC1 (single isomer, unassigned) [Example 138]	1300 nM	
630 nM	Cc1nonc1C(=O)N[C@H](c1cn2ncc([C@H](NC(=O)[C@H](F)[C@H](C)C(F)(F)F)C3CC3)cc2n1)C1CCC(F)(F)CC1 (relative stereo) [Example 353, N—((S)-(7-((R)-Cyclopropyl((2R*,3S*)-2,4,4,4-tetrafluoro-3-methylbutanamido)methyl)imidazo[1,2-b]pyridazin-2-yl)(4,4-difluorocyclohexyl)methyl)-4-methyl-1,2,5-oxadiazole-3-carboxamide]	970 nM	
90 nM	O=C(CCC(F)(F)F)N[C@@H](c1cnn2cc([C@@H](NC(=O)c3ccnn3C(F)(F)F)C3CCC(F)(F)CC3)nc2c1)C1CC1 [Example 104, N—((S)-(7-((R)-Cyclopropyl(4,4,4-trifluorobutanamido)methyl)imidazo[1,2-b]pyridazin-2-yl)(4,4-difluorocyclohexyl)methyl)-1-(trifluoromethyl)-1H-pyrazole-5-carboxamide]	550 nM	
640 nM	O=C(CCC(F)(F)F)N[C@@H](c1cnn2cc([C@@H](NC(=O)[C@H]3C[C@@H]3CF)C3CCC(F)(F)CC3)nc2c1)C1CC1 (relative stereo) [Example 363, (1S*,2S*)—N—((S)-(7-((R*)-Cyclopropyl(4,4,4-trifluorobutanamido)methyl)imidazo[1,2-b]pyridazin-2-yl)(4,4-difluorocyclohexyl)methyl)-2-(fluoromethyl)cyclopropane-1-carboxamide]	1100 nM	
640 nM	Cc1nonc1C(=O)N[C@H](c1cn2ncc(C(NC(=O)CCC(F)(F)F)C(C)C)cc2n1)C1CCC(F)(F)CC1 (single isomer, unassigned) [Example 546, N—((S)-(4,4-Difluorocyclohexyl)(7-((R*)-2-methyl-1-(4,4,4-trifluorobutanamido)propyl)imidazo[1,2-b]pyridazin-2-yl)methyl)-4-methyl-1,2,5-oxadiazole-3-carboxamide]		> 20000 nM
50 nM	O=C(CCC(F)(F)F)N[C@@H](c1cnn2cc([C@@H](NC(=O)c3conc3C3CC3)C3CCC(F)(F)CC3)nc2c1)C1CC1 [Example 75, 3-Cyclopropyl-N—((S)-(7-((R)-cyclopropyl(4,4,4-trifluorobutanamido)methyl)imidazo[1,2-b]pyridazin-2-yl)(4,4-difluorocyclohexyl)methyl)isoxazole-4-carboxamide]	92 nM	
24 nM	COCC(NC(=O)CC1CC(F)(F)C1)c1cnn2cc([C@H](COC(C)(C)C(F)(F)F)NC(=O)c3nonc3C3CC3)nc2c1 (single isomer, unassigned) [Example 538, 4-Cyclopropyl-N—((R)-1-(7-((S*)-1-(2-(3,3-difluorocyclobutyl)acetamido)-2-methoxyethyl)imidazo[1,2-b]pyridazin-2-yl)-2-((1,1,1-trifluoro-2-methylpropan-2-yl)oxy)ethyl)-1,2,5-oxadiazole-3-carboxamide]	80 nM	
3400 nM	C[C@H](CC(=O)N[C@@H](c1cnn2cc([C@@H](NC(=O)[C@@H]3C[C@H]3C(F)(F)F)C3CCC(F)(F)CC3)nc2c1)C1CC1)C(F)(F)F (relative stereo) [Example 241, (trans-1R*,2R*)—N—((S)-(7-((R)-Cyclopropyl((R*)-4,4,4-trifluoro-3-methylbutanamido)methyl)imidazo[1,2-b]pyridazin-2-yl)(4,4-difluorocyclohexyl)methyl)-2-(trifluoromethyl)cyclopropane-1-carboxamide]	> 20000 nM	

SMILES	IC50 [1]	IC50 ([2]; Homo sapiens, Keratinocyte)	IC50 [2]
Cc1nonc1C(=O)N[C@@H](COC(C)(C)C)c1cn2ncc(C(NC(=O)CCC(F)(F)F)C3CC3)cc2n1 (single isomer, unassigned) [Example 315, N—((R)-2-(tert-Butoxy)-1-(7-((S*)-cyclopropyl(4,4,4-trifluorobutanamido)methyl)imidazo[1,2-b]pyridazin-2-yl)ethyl)-4-methyl-1,2,5-oxadiazole-3-carboxamide]	13000 nM		> 20000 nM
O=C(CCC(F)(F)F)N[C@@H](c1cnn2cc([C@@H](NC(=O)c3ccnc(OC4CCC4)c3)C3CCC(F)(F)CC3)nc2c1)C1CC1 [Example 181, 2-Cyclobutoxy-N—((S)-(7-((R)-cyclopropyl(4,4,4-trifluorobutanamido)methyl)imidazo[1,2-b]pyridazin-2-yl)(4,4-difluorocyclohexyl)methyl)isonicotinamide]	80 nM	460 nM	
